According to patent US9603866B2, “Anti-fatigue composition, formulation and use thereof” (priority 2010, dated 2017):
Marks after values point to notes of the source that are not given here.

Experiments:
ICR mice = assay: Mice burden swimming test; assay type: in vivo; details: for Swimming time / Change rate of swimming time: gavage once a day, 30 days; for Swimming time: 6% body weight load; for Change rate of swimming time: vs normal control
Method: According to the Technical Standards for Testing & Assessment of Health Food issued by the Ministry of Health, P. R. China, function and biochemistry indexes assessment of the mixture of 20(S)-protopanoxadiol and lycium barbarum polysaccharide on the function of relieving physical fatigue is conducted; the detailed method is given as follows:
(§1) 1. Experimental animals: ICR mice, male, 18-22 g, provided by Shanghai Slack laboratory animal Co. Ltd., license number: SCXK (Shanghai) 2007-0005;
20(S)-protopanoxadiol: provide by Shanghai Innovative Research Center of Traditional Chinese Medicine, batch number: 20050606-1, purity: 94%; lycium barbarum polysaccharide: provided by Shanghai KangZhou Fungi Extract Co. Ltd., polysaccharide content≧30%.
To 20(S)-protopanoxadiol is added a small amount of 0.3% CMC-Na, followed by grinding to form a suspension and diluting with CMC-Na to a desired concentration. Then lycium barbarum polysaccharide is added to the 20(S)-protopanoxadiol suspension to form a composition with a certain concentration.
(§2) 3. Experimental groups: the mice are randomly divided into 19 groups by weight, 20 mice per each group; the detailed groups are as follows:
(§3) 0.2 ml/10 g of drug is administrated by gavage every day; for normal control group, 0.2 ml/10 g of distilled water is administrated by gavage every day; once a day, 30 days in total.
30 minutes after the last time of administrating drug, the end of the tail of each mouse is loaded with copper wires corresponding to 6% of its body weight, then the mouse is put in a swimming box to swim, the time from start of swimming to death of the mouse is recorded, i.e. the mice burden swimming time; the water depth in the swimming box is 30 cm or more, and water temperature is 23+1.0° C.
5. Statistical data processing: t-test is conducted to calculate P value, Jin Zhengjun formula is used to conduct combined medication analysis.
Other than the combined dosage of Experimental example 1, the range of combined dosage is enlarged to conduct multi-batch experiments. The experimental animals, drugs and method are the same as those of Experimental example 1, and the final results are shown in Table 2: […]

[1] = Animal weight during the 30-day gavage of the burden swimming study; assay type: in vivo, mice; details: gavage once a day, 30 days
Method: as §1, §2, §3

CC(C)=CCC[C@](C)(O)[C@H]1CC[C@]2(C)[C@@H]1[C@H](O)C[C@@H]1[C@@]3(C)CC[C@H](O)C(C)(C)[C@@H]3CC[C@]12C [20(S)-protopanoxadiol]
Swimming time (ICR mice; 0.01 mg/kg): 640 ± 275 s
Change rate of swimming time (ICR mice; 0.01 mg/kg): 1.5%
Swimming time (ICR mice; 0.5 mg/kg): 660 ± 268 s
Change rate of swimming time (ICR mice; 0.5 mg/kg): 1.9%
Swimming time (ICR mice; 1 mg/kg): 658 ± 296 s
Change rate of swimming time (ICR mice; 1 mg/kg): 2.2%
Swimming time (ICR mice; 5 mg/kg): 640 ± 286 s
Change rate of swimming time (ICR mice; 5 mg/kg): 1.5%
Swimming time change rate (ICR mice; Table 2, 0.01 mg/kg): 1.5%
Swimming time change rate (ICR mice; Table 2, 0.5 mg/kg): 1.9%
Swimming time change rate (ICR mice; Table 2, 1 mg/kg): 2.2%
Swimming time change rate (ICR mice; Table 2, 3 mg/kg): 1.6%
Swimming time change rate (ICR mice; Table 2, 6.25 mg/kg): 1.4%
Swimming time change rate (ICR mice; Table 2, 12.5 mg/kg): 3.4%
Swimming time change rate (ICR mice; Table 2, 25 mg/kg): 6.9%
Swimming time change rate (ICR mice; Table 2, 50 mg/kg): 12.4* %
Effect on mice swimming time (in words) (ICR mice; Table 2, single use, compared with normal control group (P>0.05)): no significant effect on mice swimming time
Animal weight start/finish (finish) ([1]; 0.01 mg/kg): 21.6/39.2 g
Animal weight start/finish (finish) ([1]; 0.5 mg/kg): 21.8/38.8 g
Animal weight start/finish (finish) ([1]; 1 mg/kg): 21.7/38.7 g
Animal weight start/finish (finish) ([1]; 5 mg/kg): 21.8/38.9 g
